What was measured:
[1] = Conversion Test 1: conversion half life of prodrug to parent compound in mouse serum; assay type: in vitro ADME; conditions: 37° C.
Protocol: (§1) Chloroform solution containing egg yolk lecithin (84 μmole), egg yolk sphingomyelin (36 μmole) and Mitomycin C prodrug ( 6 μmole) obtained in the below-mentioned Example 1 or 2 was poured into a round-bottom flask and evaporated to dryness.
(§2) To this were added sodium cholate (258 mg) and pH 7.4 phosphate buffered saline (hereinafter referred to as PBS) (4.8 ml) and the mixture was agitated to give a clear purple solution.
(§3) Sodium cholate was removed from the solution by the Lipoprep dialyzer (detergent removal apparatus prepared by Diachema Co., Ltd.) to give a liposome suspension containing Mitomycin C prodrug.
(§4) Chloroform solution containing egg yolk lecithin (70 μmole), egg yolk sphingomyelin (30 μmole) and FR900482 substance prodrug (Example 6)(5 μmole) was poured into a round-bottom flask and a liposome suspension containing FR900482 substance prodrug was obtained in a similar manner to that of above-mentioned method. […]
(§5) After the liposome suspension and ethanol solution of each prodrug (0.5 ml) were added to mouse, rat or human serum (4.5 ml, 37° C.), samples were taken periodically and the concentration of each prodrug was determined by high-performance liquid chromotography.
(§6) Conversion half lives (t 1/2) of each prodrug to each parent compound in various kinds of serum were calculated by the concentration of each prodrug remaining at each time.

[2] = Conversion Test 1: conversion half life of prodrug to parent compound in rat serum; assay type: in vitro ADME; conditions: rat serum, 37° C.
Protocol: as §1, §2, §3
Chloroform solution containing egg yolk lecithin (70 μmole), egg yolk sphingomyelin (30 μmole) and FR900482 substance prodrug (Example 6)(5 μmole) was poured into a round-bottom flask and a liposome suspension containing FR900482 substance prodrug was obtained in a similar manner to that of above-mentioned method.
Above-mentioned two liposome suspensions containing Mitomycin C prodrug were each diluted with PBS at 2.5 times.
The liposome suspension containing FR900482 substance prodrug was diluted with PBS to obtain the drug concentration of 0.5 μmole/ml and was filtered through millex-GV (trademark: prepared by Millipore Co., Ltd.) filter (0.22μ).
as §5, §6

[3] = Conversion Test 1: conversion half life of prodrug to parent compound in human serum; assay type: in vitro ADME; conditions: 37° C.
Protocol: as §1, §2, §3, §4, §5, §6

in vitro = in vitro ADME; conditions: rat, serum
Protocol: The mixture of chloroform and methanol (8:2 v/v) mixture containing egg yolk lecithin (70 μmole), egg yolk sphingomyelin (30 μmole) and Cytarabine prodrug (30 μmole) obtained in the below-mentioned Example 8 was poured into a round-bottom flask and evaporated to dryness. To this were added sodium cholate (53.8 mg) and PBS (5.0 ml) and the mixture was agitated to give a clear colorless solution.
Sodium cholate was removed from the solution by the Lipoprep dialyzer to give liposome suspension containing Cytarabine prodrug.
The liposome suspension was diluted with PBS to obtain the drug concentration of 5 μmole/ml and was filtered successively through polycarbonate membranes(prepared by Nuclepore Co., Ltd.) (0.2, 0.1 and 0.08μ respectively) and then filtered through a millex-GV filter (0.22 μ).
After the above-mentioned liposome suspension and ethanol solution of Cytarabine prodrug (0.08 ml) were added to rat serum (4.0 ml, 37° C.), samples were taken periodically and the concentration of Cytarabine prodrug was determined by high-performance liquid chromatography.
Conversion half lives (t 1/2) of the prodrug to the parent compound were calculated by the concentration of prodrug remaining at each time.

[4] = system: Mouse leukemia cell L 1210; assay: Anti tumor test 1: survival of mice implanted with L 1210 leukemia; assay type: in vivo; conditions: i.v. liposome suspension; for T/C: mean survival time vs control
Source text: The mixture of chloroform and methanol (8:2 V/V) containing egg yolk lecithin (245 μmole), egg yolk sphingomyelin (105 μmole) and Cytarabine prodrug (Example 8) (87.5 and 262.5 μmole respectively) was taken in a roundbottom flask. Liposome suspensions containing Cytarabine prodrug (Concentration: 10 and 20 μmole/ml respectively) were obtained in a similar manner to that of the above-mentioned method. Mouse leukemia cell L 1210 (10^5 cells) were implanted intraperitoneally into BDF female mice (7 weeks).
After 24 hours after inoculation, Cytarabine aqueous solution (dose: 1000 and 3000 μmole/kg respectively), above-mentioned liposome suspension containing Cytarabine prodrug (dose: 100 and 300 μmole/kg respectively)and aqueous solution of N^4 -behenoyl-1-β-arabinofuranosylcytosine (hereinafter referred to as BHAC) which is a known compound as Cytarabine prodrug and is shown by the following structure (dose: 100 and 300 μmole/kg respectively) were administered intravenously to the mouse at a volume of 0.2 ml or 0.3 ml (in case the administration at the dose of 300 μmole/kg of Cytarabine prodrug) per 20 g of mouse body weight. After the treatment, survival of the mice was recorded. [drawing 9]

[5] = system: human lung adenocarcinoma A 549; assay: Anti tumor test 2: growth inhibition of A 549 under the subrenal capsule of mice; assay type: in vivo; conditions: Day 14, i.v. liposome preparation; for Inhibition: tumor growth
Source text: The mixture of chloroform and methanol (3:1 V/V) containing egg yolk lecithin (245 μmole), egg yolk sphingomyelin (105 μmole) and Cyarabine prodrug (Example 8) (87.5 and 157.5 μmole respectively) was taken in a round-bottom flask. Liposome suspensions containing Cytarabine prodrug (Concentration: 10 and 18 μmole/ml respectively) were obtained in a similar manner to that of the above-mentioned method.
A fragment of human lung adenocarcinoma A 549 was implanted under the subrenal capsule of BDF female mouse (8 weeks). Cytarabine aqueous solution (dose: 1000 μmole/kg) and above-mentioned liposome suspension containing Cytarabine prodrug (dose: 100 and 180 μmole/kg respectively)were administered intravenously to the mice at a volume of 0.2 ml per mouse body weight 20 g at Day 1, 5 and 9 after implantation. The tumor volume at Day 14 after implantation was measured and the growth inhibition percent was calculated. (In this test, to clarify the anti tumor effect of each preparation, 17-allyl-1,14-dihydroxy-12-[2-(4-hydroxy-3- methoxycyclohexyl)-1-methylvinyl]-23,25-dimethoxy-13,19,21,27-tetramethyl- 11,28-dioxa-4-azatricyclo[22.3.1.0^4,9 ]octacos-18-ene-2,3,10,16-tetraone as immunosuppressive substance(dose: 32 mg/kg) was administered subcutaneously at Day 1, 2, 5, 7, 9 and 12 after implanation.)

## 11-[N-(cholest-5-en-3β-oxycarbonyl)glycyl]-4-formyl-6,9-dihydroxy-14- oxa-1,11-diazatetracyclo[7.4.1.0^2,7.0^10,12 ]tetradeca-2,4,6-triene-8-ylmethylcarbamate [Example 6]
[1]; ethanol solution
  Half life (t 1/2): 2.7 h
[1]; liposome suspension
  Half life (t 1/2): 4.6 h
[2]; ethanol solution
  Half life (t 1/2): 4.0 h
[2]; liposome suspension
  Half life (t 1/2): 10.3 h
[3]; ethanol solution
  Half life (t 1/2): 3.3 h
[3]; liposome suspension
  Half life (t 1/2): 9.9 h

## CC(C)CCC[C@@H](C)[C@H]1CC[C@H]2[C@@H]3CC=C4C[C@@H](OC(=O)NCC(=O)Nc5ccn([C@@H]6O[C@H](CO)[C@@H](O)[C@@H]6O)c(=O)n5)CC[C@]4(C)[C@H]3CC[C@]12C [Example 8, N^4-[N-(cholest-5-en-3β-oxycarbonyl)glycyl]-1-β-D-arabinofuranosylcytosine]
In vitro
  Half life (t 1/2): 37.3 h
In vitro; Half life (t 1/2)
  half-life: 22.6 h
[4]; 100 μmole/kg
  Mean survival time: 16.3 ± 0.3 days
  T/C: 181%
[4]; 300 μmole/kg
  Mean survival time: 33.3 ± 13.4 days
  T/C: 370%
[5]; 100 μmole/kg at Day 1, 5, 9
  Tumor volume mean value ± standard error: 13.0 ± 3.0 mm^3
  Inhibition: 54.1%
[5]; 180 μmole/kg at Day 1, 5, 9
  Tumor volume mean value ± standard error: 5.5 ± 1.6 mm^3
  Inhibition: 80.4%

— patent US4772594A, “Prodrug compounds, process for the preparation thereof and sustained release preparation comprising the same” (Fujisawa Pharmaceutical Co., Ltd., priority 1986, dated 1988)
